Test results published in publication PMC12318229, “RACK1A positively regulates opening of the apical hook in Arabidopsis thaliana via suppression of its auxin response gradient” (Proceedings of the National Academy of Sciences of the …, 2025).

Target: T1, RACK1A (RECEPTOR FOR ACTIVATED C KINASE 1A) (Arabidopsis thaliana, UniProt O24456)
T1 construct: WD40 seven-bladed beta-propeller scaffold protein
Assay: microscale thermophoresis (MST)
Assay type: binding

T1 sequence (O24456 whole entry): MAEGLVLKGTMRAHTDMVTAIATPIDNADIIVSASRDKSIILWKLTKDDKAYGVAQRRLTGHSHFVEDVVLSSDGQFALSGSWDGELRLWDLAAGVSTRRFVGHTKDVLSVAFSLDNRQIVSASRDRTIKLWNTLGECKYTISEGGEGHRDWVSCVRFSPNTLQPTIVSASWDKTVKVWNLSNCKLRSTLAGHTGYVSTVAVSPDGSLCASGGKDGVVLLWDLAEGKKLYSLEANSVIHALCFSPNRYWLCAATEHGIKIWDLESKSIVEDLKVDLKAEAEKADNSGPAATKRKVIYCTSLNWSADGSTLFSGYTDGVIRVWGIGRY

Structure (SMILES): COc1cc(OC)cc(C(=O)Nc2ccc3ccccc3c2)c1 [DAPIA]
- Kd: 32.8 ± 15.7 µM
